Like-named read-outs stand apart in the source and are kept apart here.
Legend:
[1] = system: sub-genomic HCV NS3-NS5B replicon genotype 1a C316Y (Huh-7 cells); test: Replicon luciferase cell based assay, genotype 1a C316Y; details: Hepatitis C virus, Huh-7, 48 h, read-out: EC50 1a 316Y
Procedure: (§1) 150 μL of a 1 mM stock solution in DMSO of each test compound was transferred into in the first column of a 96 well, V-bottom microplate, to give 200 times the top concentration of the required dilution series. Aliquots of 50 μL were added to each well of the remaining rows containing 100 μL of DMSO giving a 1:3 dilution series over ten points. Columns 11 and 12 contained DMSO only for the positive and negative control, respectively. 10 μL of each well were transferred into 90 μL of DMEM medium (Invitrogen #41965-039) supplemented with 5% v/v foetal calf serum, 1% v/v non-essential amino acids solution, 100 units/ml penicillin, 100 μg/ml streptomycin and 2 mM L-glutamine to give 20 times the top concentration of the required dilution series.
(§2) Suspensions were prepared from cultures of Huh-7 cells stably transfected with sub-genomic HCV NS3-NS5B replicons of either genotype 1b (the ET subline described by Pietschmann, T., Lohmann, V., Kaul, A., Krieger, N., Rinck, G., Rutter, G., Strand, D. & Bartenschlager, R., Journal of Virology, 2002, 76, 4008-4021), genotype 1a (subline 1.19 constructed in-house from H77 SG-Neo containing adaptive mutations P1496L and S2204I as described by Blight, K. J., McKeating, J. A., Marcotrigiano, J., and Rice, C. M. Journal of Virology, 2003, 77, 3180-3190), genotype 1b C316N (constructed in-house by site directed mutagenesis of the NS5B gene of the ET subline), or genotype 1a C316Y (constructed in-house by site directed mutagenesis of the NS5B gene of H77 SG-Neo containing adaptive mutations P1496L and S2204I as described by Blight, K. J., McKeating, J. A., Marcotrigiano, J., and Rice, C. M. Journal of Virology, 2003, 77, 3180-3190) linked to a firefly luciferase reporter gene. Monolayers nearing confluency were stripped from growth flasks with versene-trypsin solution and the cells re-suspended in assay medium comprising DMEM. 95 μL of suspension containing either 15,000 cells (genotype 1b luciferase replicon) or 20,000 cells (genotype 1a luciferase replicon) were added to all wells of a 96 well plate (Perkin Elmer, #6005686), except medium controls in column 12 of the assay plate. The cell suspension was dosed with 5 μL of compound solution and the plate was incubated for 48 hours at 37° C. in a 5% CO2 atmosphere.
(§3) For toxicity the cells in one plate were treated with Cell Titer Glo (Promega, #G7573). A solution of Cell Titer Glo was prepared according to the manufacturer's instructions, and 100 μL added to each well. The plate was then read for luminescence on an Envision. For potency a solution of Steady Glo (Promega, #E2550) was prepared according to the manufacturer's instructions and 100 μL added to each well. After a twenty minute incubation the plate was then read for luminescence on an Envision.
(§4) Potency: The luminescence values from all compound-free wells containing cells were averaged to obtain a positive control value. The mean luminescence value from the compound-free wells that had received no cells was used to provide the negative (background) control value. The readings from the wells at each compound concentration were taken and after the subtraction of the mean background from all values, were expressed as a percentage of the positive control signal. The quantifiable and specific reduction of luciferase signal in the presence of a drug is a direct measure of replicon inhibition. BioAssay Enterprise (CamebridgeSoft) with the XC50 module for curve fitting was used to plot the curve of percentage inhibition against compound concentration and derive the 50% inhibitory concentration (EC50) for the compound. EC50 is the effective concentration, that is, the concentration of compound where 50% maximal effect is observed. The EC50 values of two identical plates were averaged. The results are presented in Table 1 as EC50 for genotypes (GT) 1a, 1b, 1b 316N and 1a 316Y.

[2] = system: sub-genomic HCV NS3-NS5B replicon genotype 1a (Huh-7 cells); test: Replicon luciferase cell based assay, genotype 1a; details: Huh-7 genotype 1a luciferase replicon, 48 hours, read-out: EC50 GT 1a
Procedure: as §1, §2, §3, §4

[3] = system: sub-genomic HCV NS3-NS5B replicon genotype 1b (Huh-7 cells); test: Replicon luciferase cell based assay, genotype 1b; details: Hepatitis C virus; Huh-7 genotype 1b luciferase replicon, 48 hours; read-out: EC50 GT1b
Procedure: as §1, §2, §3, §4

[4] = system: sub-genomic HCV NS3-NS5B replicon genotype 1b C316N (Huh-7 cells); test: Replicon luciferase cell based assay, genotype 1b C316N; details: read-out: EC50 1b 316N
Procedure: as §1, §2, §3, §4

[5] = In vivo pharmacokinetic study, rat
Procedure: In vivo pharmacokinetic studies were conducted in mouse, rat, dog, or cynomolgus monkey to determine clearance, oral exposure and bioavailability (% F). Solution doses of the compounds were administered intravenously through catheters or orally by gavage. Blood samples were collected at the following time points (n=2 or 3/route/species): 0.083 (IV only), 0.167 (IV only), 0.25, 0.5, 1, 2, 4, 6, 8, 12, and 24 h. Non-compartmental pharmacokinetic parameters were determined using Phoenix Winnonlin 6.1 (Pharsight, Mountain View, Calif.). Bioavailability of the oral formulation of each compound were calculated as the ratio of the oral dose normalized AUCinf to the intravenous dose normalized AUCinf. Results are expressed in Table 2.

| SMILES | EC50 [1] | EC50 ([2]; Hepatitis C virus) | EC50 [3] | EC50 ([4]; Hepatitis C virus, Huh-7, 48 h) | also measured |
| --- | --- | --- | --- | --- | --- |
| CNC(=O)c1c(-c2ccc(F)cc2)oc2cc(N(c3ccc(B(O)O)cc3F)S(C)(=O)=O)c(C3CC3)cc12 [Example 6, 4-(N-(5-cyclopropyl-2-(4-fluorophenyl)-3-(methylcarbamoyl)benzofuran-6-yl)methylsulfonamido)-3-fluorophenylboronic acid] | > 1000 nM | 1 to 10 nM | 1 to 10 nM | 11 to 200 nM |  |
| CNC(=O)c1c(-c2ccc(F)cc2)oc2cc(N(c3ccc(B(O)O)c(C(F)(F)F)c3)S(C)(=O)=O)c(C3CC3)cc12 [Example 10, (4-(N-(5-cyclopropyl-2-(4-fluorophenyl)-3-(methylcarbamoyl)benzofuran-6-yl)methylsulfonamido)-2-(trifluoromethyl)phenyl)boronic acid] | 11 to 200 nM | 1 to 10 nM | 1 to 10 nM | 1 to 10 nM |  |
| CS(=O)(=O)N(c1ccc(B(O)O)c(Cl)c1)c1cc2oc(-c3ccc(Cl)cc3)c(C(=O)O)c2cc1C1CC1 [Example 13, 6-(N-(4-borono-3-chlorophenyl)methylsulfonamido)-2-(4-chlorophenyl)-5-cyclopropylbenzofuran-3-carboxylic acid] |  | > 1000 nM | > 1000 nM | > 1000 nM |  |
| CNC(=O)c1c(-c2ccc(F)cc2)oc2cc(N(c3ccc(C4CCB(O)O4)c(Cl)c3)S(C)(=O)=O)c(C3CC3)cc12 (single isomer, unassigned; enantiomer 2) [Example 29, 6-(N-(3-Chloro-4-(2-hydroxy-1,2-oxaborolan-5-yl)phenyl)methylsulfonamido)-5-cyclopropyl-2-(4-fluorophenyl)-N-methylbenzofuran-3-carboxamide, enantiomer 2] |  |  |  |  | EC50 [2]: 1 to 10 nM; EC50 ([4]; Huh-7 genotype 1b C316N luciferase replicon, 48 hours): 11 to 200 nM |
| CNC(=O)c1c(-c2ccc(F)cc2)oc2cc(N(c3ccc4c(c3)CCOB4O)S(C)(=O)=O)c(C3CC3)cc12 [Example 30] |  | 1 to 10 nM | 1 to 10 nM | 1 to 10 nM |  |
| CNC(=O)c1c(-c2ccc(F)cc2)oc2cc(N(c3ccc(B(O)O)c(C#N)c3)S(C)(=O)=O)c(C3CC3)cc12 [Example 12, (2-cyano-4-(N-(5-cyclopropyl-2-(4-fluorophenyl)-3-(methylcarbamoyl)benzofuran-6-yl)methylsulfonamido)phenyl)boronic acid] | 11 to 200 nM | 1 to 10 nM | 1 to 10 nM | 1 to 10 nM |  |
| CNC(=O)c1c(-c2ccc(F)cc2)oc2cc(N(c3ccc4c(c3)COB4O)S(C)(=O)=O)c(C3CC3)cc12 [Example 20, 5-Cyclopropyl-2-(4-fluorophenyl)-6-(N-(1-hydroxy-1,3-dihydrobenzo[c][1,2]oxaborol-5-yl)methylsulfonamido)-N-methylbenzofuran-3-carboxamide] | 11 to 200 nM | 1 to 10 nM | 1 to 10 nM | 1 to 10 nM |  |
| CNC(=O)c1c(-c2ccc(F)cc2)oc2cc(N(c3ccc(OCB(O)O)cc3)S(C)(=O)=O)c(C3CC3)cc12 [Example 18, ((4-(N-(5-Cyclopropyl-2-(4-fluorophenyl)-3-(methylcarbamoyl)benzofuran-6-yl)methylsulfonamido)phenoxy)methyl)boronic acid] | 11 to 200 nM |  | 1 to 10 nM | 11 to 200 nM |  |
| CNC(=O)c1c(-c2ccc(F)cc2)oc2cc(N(c3cccc(CCB(O)O)c3)S(C)(=O)=O)c(C3CC3)cc12 [Example 26, (3-(N-(5-Cyclopropyl-2-(4-fluorophenyl)-3-(methylcarbamoyl)benzofuran-6-yl)methylsulfonamido)phenethyl)boronic acid] | 200 to 1000 nM | 1 to 10 nM | 1 to 10 nM | 11 to 200 nM |  |
| CNC(=O)c1c(-c2ccc(Cl)cc2)oc2cc(N(c3ccc(B(O)O)c(C#N)c3)S(C)(=O)=O)c(C3CC3)cc12 [Example 21, (4-(N-(2-(4-Chlorophenyl)-5-cyclopropyl-3-(methylcarbamoyl)benzofuran-6-yl)methylsulfonamido)-2-cyanophenyl)boronic acid] | 1 to 10 nM | 1 to 10 nM | 1 to 10 nM | 1 to 10 nM |  |
| CNC(=O)c1c(-c2ccc(F)cc2)oc2cc(N(c3cc(F)c4c(c3)COB4O)S(C)(=O)=O)c(C3CC3)cc12 [Example 24, 5-Cyclopropyl-6-(N-(7-fluoro-1-hydroxy-1,3-dihydrobenzo[c][1,2]oxaborol-5-yl)methylsulfonamido)-2-(4-fluorophenyl)-N-methylbenzofuran-3-carboxamide] | 11 to 200 nM | 1 to 10 nM | 1 to 10 nM | 1 to 10 nM |  |
| CNC(=O)c1c(-c2ccc(Cl)cc2)oc2cc(N(Cc3ccc(B(O)O)c(F)c3)S(C)(=O)=O)c(C3CC3)cc12 [C] |  |  |  |  | DNAUC ([5]; Rat): 434 ng·h/mL/mg/kg; T 1/2 ([5]; Rat): 1.8 H; clearance ([5]; rat, blood, intravenous): 15.6 mL/min/kg; Vd ([5]; rat, blood, intravenous, read-out: Vss): 1.1 L/kg; bioavailability ([5]; rat, blood, oral): 40% |
| CNC(=O)c1c(-c2ccc(F)cc2)oc2cc(N(c3ccc(B(O)O)c(S(C)(=O)=O)c3)S(C)(=O)=O)c(C3CC3)cc12 [Example 16, (4-(N-(5-cyclopropyl-2-(4-fluorophenyl)-3-(methylcarbamoyl)benzofuran-6-yl)methylsulfonamido)-2-(methylsulfonyl)phenyl)boronic acid] | 11 to 200 nM | 1 to 10 nM | 1 to 10 nM | 11 to 200 nM |  |
| CNC(=O)c1c(-c2ccc(F)cc2)oc2cc(N(c3ccc(B(O)O)c(C(F)F)c3)S(C)(=O)=O)c(C3CC3)cc12 [Example 9, (4-(N-(5-cyclopropyl-2-(4-fluorophenyl)-3-(methylcarbamoyl)benzofuran-6-yl)methylsulfonamido)-2-(difluoromethyl)phenyl)boronic acid] | 11 to 200 nM | 1 to 10 nM | 1 to 10 nM | 1 to 10 nM |  |
| CNC(=O)c1c(-c2ccc(F)cc2)oc2cc(N(c3ccc(B(O)O)cc3)S(C)(=O)=O)c(C3CC3)cc12 [Example 3, 4-(N-(5-cyclopropyl-2-(4-fluorophenyl)-3-(methylcarbamoyl)benzofuran-6-yl)methylsulfonamido)phenylboronic acid] | 200 to 1000 nM | 1 to 10 nM | 1 to 10 nM | 1 to 10 nM |  |
| CNC(=O)c1c(-c2ccc(F)cc2)oc2cc(N(c3ccc(B(O)O)cn3)S(C)(=O)=O)c(C3CC3)cc12 [Example 8, 6-(N-(5-cyclopropyl-2-(4-fluorophenyl)-3-(methylcarbamoyl)benzofuran-6-yl)methylsulfonamido)pyridin-3-ylboronic acid] |  | > 1000 nM | > 1000 nM | > 1000 nM |  |

From US9682999B2, “Benzofuran compounds for the treatment of hepatitis C virus infections” (Glaxo Group Limited, priority 2011, dated 2017)
